Here are results for 67 molecules from PubChem BioAssay AID1626 (SRMLSC, 2009).

Structures are written as SMILES.

The IC50 is the point on the concentration scale where inhibition reaches its midpoint. The IC90 is the concentration at which the effect reaches the 90% level. The term CC50 denotes the concentration giving 50% cytotoxicity. A higher CC50 goes with better tolerance by the cells.

The assay concerns M. tuberculosis H37Rv growth inhibition. The assay is described as follows: M. tuberculosis H37Rv growth inhibitors, H37Rv strain (AID 1626). The settings on record: for IC90: measured here: IC90 against H37Rv; for CC50: measured here: Vero cell cytotoxicity.

Turning to `CCCCCCCCOC(=O)c1c(CSC(=N)N)n(C)c2cc(Br)c(OC(C)=O)cc12`, the IC50 is 11.4 µM and the IC90 worked out at 15 µM.

In the case of `COc1ccc(/C=C/C(=O)Oc2ccc(C)c(C)c2)cc1OC`, the IC50 is 9.43 µM and the IC90 was more than 100 µM.

As to `CN(C)c1ccc(/C=C/C=C2/C(=O)NC(=O)N(c3ccccc3)C2=O)cc1`, the IC50 is 2.5 µM, the IC90 stood at 4.66 µM and the CC50 is more than 40 µM.

For `CCCCCCCCSc1nnc(CSc2nc3nc(C)cc(C)n3n2)o1`, the IC50 is 0.635 µM and the IC90 is 24.6 µM.

As to `CCOc1ccc(NCc2nnc(SCC(=O)Nc3cc(C)on3)n2-c2ccc(OC)cc2)cc1`, the IC50 was 35.3 µM and the IC90 was more than 100 µM.

On to `O=C(OCc1nc2ccccc2s1)c1ccco1`, for which the half-maximal inhibitory concentration (IC50) is 32.7 µM and the IC90 is more than 100 µM.

Turning to `O=C(Nc1ccc(F)c(Cl)c1)Nc1csc2ccccc12`, the concentration for half-maximal inhibition (IC50) is 54.9 µM, the IC90 is more than 100 µM and the CC50 is 7.06 µM.

Consider `Cc1nc(SCC(=O)Nc2cc(C)on2)c2c3c(sc2n1)CCCC3`, for which the IC50 is less than 0.195 µM, the IC90 was determined as 13.8 µM and the CC50 is 21 µM.

In the case of `O=C(Nc1ncc(Cc2cccc(Cl)c2)s1)C1=NCCN1`, the IC50 is 6.98 µM, the IC90 is more than 100 µM and the CC50 was more than 40 µM.

For the molecule `CC(C)(C)c1cc(NCCCn2ccnc2)n2ncc(-c3ccccc3)c2n1`, the IC50 was 1.76 µM, the IC90 came out at 2.89 µM and the CC50 was 15.9 µM.

Consider `Cn1c(-c2ccccc2)cc2c3no[n+]([O-])c3ccc21`, for which the IC50 was less than 0.195 µM, the IC90 turned out to be 0.445 µM and the CC50 was 2.6 µM.

Regarding `CCOc1ccc(NC2c3ccccc3C(=O)N2Cc2ccco2)cc1` (stereo not drawn), the IC50 was 19.1 µM and the IC90 is more than 100 µM.

For the molecule `CCCCCOC(=O)c1ccc(OC(=O)c2cncc(Br)c2)cc1`, the IC50 was 11.6 µM and the IC90 is more than 100 µM.

`CCOC(=O)c1ccc(NC(=O)CSC2=NC(=O)C(CC)C(=O)N2)cc1` (stereo not drawn): the IC50 was 24.3 µM and the IC90 is more than 100 µM.

Consider `Cc1cc(C)n(-c2nc(Nc3ccccc3C)nc(-n3nc(C)cc3C)n2)n1`, for which the half-maximal inhibitory concentration (IC50) was 88.4 µM and the IC90 was more than 100 µM.

As for `Cc1ccc(NC(=O)/C=C/c2ccc([N+](=O)[O-])s2)cc1`, the IC50 was 45.9 µM, the IC90 was more than 100 µM and the CC50 is more than 40 µM.

Turning to `Cc1ccc(Cl)cc1NC1=C/C(=N\S(=O)(=O)c2cccs2)c2ccccc2C1=O`, the IC50 was 1.91 µM, the IC90 worked out at 3.21 µM and the CC50 came out at 5.83 µM.

For the molecule `CCOC(=O)c1ccc(NC(=O)/C=C/c2cccs2)cc1`, the IC50 is 71.3 µM and the IC90 was more than 100 µM.

For `Cc1cc(C)c2c(CN3CCN(Cc4ccc5c(c4)OCO5)CC3)cc(=O)oc2c1C`, the IC50 is 19 µM and the IC90 was more than 100 µM.

In the case of `N#Cc1nc(-c2cccs2)oc1NCCc1ccccc1`, the IC50 is 1.97 µM and the IC90 amounted to 5.43 µM.

As for `CCOc1ccc(NC(=O)CSC2=NCCN2)cc1`, the IC50 was 11.6 µM and the IC90 was more than 100 µM.

As to `CCOC(=O)C(C)Sc1ncnc2c1nnn2-c1ccc(F)cc1` (stereo not drawn), the IC50 is 2.47 µM and the 90% effect concentration (IC90) came to 21.6 µM.

`Cc1cccc(NC(=O)c2nc[nH]c2C(=O)N[C@@H](C)C(=O)OCc2ccccc2)c1`: the IC50 is 59.9 µM and the IC90 was more than 100 µM.

Turning to `CC(C)c1ccc(Nc2nnc(SCC(=O)Nc3ncc(S(=O)(=O)c4ccc([N+](=O)[O-])cc4)s3)s2)cc1`, the IC50 is 5.63 µM and the concentration for an effect of 90% (IC90) was found to be 7.98 µM.

`CCn1c(CNc2ccccc2Cl)nnc1SCC(=O)OC1CCCCC1`: the IC50 is 1.63 µM and the IC90 is 3.2 µM.

With `COc1ccc(N=C2CCS(=O)(=O)c3sccc32)cc1`, the IC50 is 54.3 µM and the IC90 was more than 100 µM.

In the case of `CC(=O)Oc1c(-c2ccco2)oc2ccccc2c1=O`, the IC50 is 51.4 µM and the IC90 was more than 100 µM.

On to `CCOC(=O)COc1ccc2c(=O)c(-c3ccccc3OC)coc2c1`, for which the IC50 was 1.06 µM and the IC90 worked out at 2.45 µM.

In the case of `COc1ccc(C2CC(=O)C3=C(C2)NC(C)=C(C#N)C3c2ccc(N(C)C)cc2)cc1` (stereo not drawn), the IC50 is 12.5 µM and the IC90 came out at 21.9 µM.

Consider `COc1ccc(Nc2ccccc2N)cc1`, for which the IC50 was 1.05 µM and the IC90 was 2.46 µM.

On to `Cc1ccccc1NC(=O)/C=C/c1ccc([N+](=O)[O-])s1`, for which the half-inhibitory concentration (IC50) was 1.46 µM, the 90% effect concentration (IC90) came to 1.92 µM and the CC50 stood at 18.6 µM.

For `CCN1CCN(c2cc(C(C)(C)C)nc3c(-c4ccccc4)c(C)nn23)CC1`, the IC50 is 3.6 µM, the 90% effect concentration (IC90) amounted to 5.63 µM and the CC50 was 30.6 µM.

Consider `CNc1nc(SC)nc2ccsc12`, for which the IC50 was 5.66 µM and the IC90 was found to be 15.2 µM.

Consider `COc1ccc2cc(C(=O)C3CCCN(Cc4cnc(C)s4)C3)ccc2c1` (stereo not drawn), for which the IC50 was 13.6 µM and the 90% effect concentration (IC90) is more than 100 µM.

For `COc1c(F)c(F)c(C(=O)Nc2ccc(N3CCN(Cc4ccccc4)CC3)cc2)c(F)c1F`, the concentration for half-maximal inhibition (IC50) is 35.9 µM, the 90% effect concentration (IC90) is more than 100 µM and the CC50 is 27.5 µM.

For the molecule `COC(=O)CSc1nc(-c2ccccc2)c2c(c1C#N)CCCC2`, the IC50 is 5.24 µM and the concentration for an effect of 90% (IC90) came to 8.33 µM.

For the molecule `CCOc1ccccc1/C=C/C(=O)c1ccc(Cl)cc1`, the half-inhibitory concentration (IC50) is 24.3 µM, the IC90 was found to be 34.2 µM and the CC50 is more than 40 µM.

As for `CCn1ccnc1CN(C)Cc1cn(-c2ccc(C)cc2)nc1-c1cccc(C)c1`, the IC50 was 2.73 µM, the IC90 was determined as 3.64 µM and the CC50 was more than 40 µM.

With `O=C(Nc1ccc(Oc2ccccc2)cc1)C1CC1`, the IC50 is 14 µM, the IC90 was more than 100 µM and the CC50 was more than 40 µM.

For `O=C(O)c1[nH]c(=O)[nH]c(=O)c1F`, the IC50 was 6.62 µM, the IC90 was 18.4 µM and the CC50 was more than 40 µM.

As for `CCC(=O)OCCNc1cc(SCCC(=O)OC)c2nonc2c1[N+](=O)[O-]`, the IC50 is 12.2 µM and the IC90 came out at 19.5 µM.

As for `CCCC(=O)N1CCN(c2ccc(NC(=O)c3ccc([N+](=O)[O-])o3)cc2Cl)CC1`, the IC50 was less than 0.195 µM, the IC90 was less than 0.195 µM and the CC50 came out at 1.8 µM.

In the case of `CCC(CO)[n+]1c(C)cc(/C=C2\Sc3ccccc3N2Cc2ccccc2)cc1C` (stereo not drawn), the IC50 was 1.3 µM, the IC90 is 1.95 µM and the CC50 is 23.2 µM.

`COc1ccc(-c2nnc(SC(C(=O)c3c[nH]c4ccccc34)c3ccccc3)n2N)cc1OC` (stereo not drawn): the IC90 is more than 100 µM and the CC50 was more than 40 µM.

In the case of `CCOC(=O)c1ccc(NC(=O)CCC2COc3ccccc3O2)cc1` (stereo not drawn), the IC50 was 3.3 µM and the IC90 is more than 100 µM.

Regarding `CCCCc1ccc(NC(=O)CC(C)C)cc1`, the IC50 is 6.02 µM and the IC90 is more than 100 µM.

In the case of `CCOC(=O)C1=C(c2ccccc2)NC(N)=NC1c1ccc(OCc2ccc(Cl)cc2)c(OC)c1` (stereo not drawn), the IC50 is 4.55 µM, the IC90 came to 5.57 µM and the CC50 was found to be 22.6 µM.

`COc1ccc(NC(=O)CCCSc2ccccc2)cc1` displayed an IC90 of more than 100 µM.

As for `CCOc1ccc(Nc2nc(N)nc(CN3CCN(c4ccccc4F)CC3)n2)cc1`, the concentration for half-maximal inhibition (IC50) was 7.83 µM and the IC90 is 16.8 µM.

On to `Cc1cc(Nc2ccccc2)nc(NCc2ccccc2)n1`, for which the IC50 is 10.9 µM, the IC90 was 14.4 µM and the CC50 stood at 23.3 µM.

As to `COc1cccc(Nc2c3c(nc4c(-c5ccccc5)c(C)nn24)CCC3)c1`, the IC50 was 3.4 µM, the IC90 came to 5.95 µM and the cytotoxic concentration (CC50) is more than 40 µM.

Take `COc1cccc(-c2nnc(SCC(=O)Nc3cc(C)on3)o2)c1`: the IC50 was 5.8 µM, the IC90 stood at 8.52 µM and the CC50 is more than 40 µM.

Consider `O=C(c1cc2cc3ccc(Cl)cc3nc2o1)N1CCC2(CC1)OCCO2`, for which the 50% inhibitory concentration (IC50) was 3.56 µM and the 90% effect concentration (IC90) is 7.22 µM.

On to `Cc1ccc(C(=O)Nc2nnc(-c3ccncc3)o2)cc1`, for which the IC50 was 5.94 µM, the IC90 came out at 6.95 µM and the CC50 was more than 40 µM.

As to `O=C(/C=C/c1ccc([N+](=O)[O-])s1)N1CCCCC1`, the half-inhibitory concentration (IC50) was 6.4 µM, the concentration for an effect of 90% (IC90) was found to be 10.6 µM and the CC50 is more than 40 µM.

On to `c1ccc(-c2oc3ncnc(NCCCn4ccnc4)c3c2-c2ccccc2)cc1`, for which the IC50 is 7.29 µM, the IC90 was found to be 16.4 µM and the CC50 worked out at 23.6 µM.

With `Cc1ccc(NC(=O)CSc2ccc(-c3ccccn3)nn2)cc1`, the IC50 is 1.98 µM, the IC90 was 2.74 µM and the CC50 is more than 40 µM.

`CCOC(=O)c1ccc(NCc2ccc(N(C)C)cc2)cc1` came in with an IC90 of more than 100 µM.

`OC(CNCc1ccco1)Cn1c2ccc(Br)cc2c2cc(Br)ccc21` (stereo not drawn): the IC50 was 2.76 µM, the IC90 amounted to 3.11 µM and the CC50 was 17.2 µM.

Turning to `Nc1nc(-c2ccccn2)nc(N)c1Cc1c(F)cccc1Cl`, the IC50 is less than 0.391 µM, the IC90 was found to be 0.451 µM and the CC50 worked out at 4.76 µM.

Consider `CCCCNC(=O)COC(=O)c1cc(Br)ccc1Cl`, for which the IC50 is 4.35 µM and the IC90 was found to be 10.5 µM.

For the molecule `CCCCn1c(NC(=O)C2CCCCC2)nc2ccccc21`, the IC50 was 0.881 µM, the IC90 is more than 100 µM and the CC50 turned out to be 35 µM.

As for `O=C1Nc2ccccc2/C1=C/C(=O)c1cccs1`, the IC50 was 4.39 µM, the IC90 is 26.1 µM and the CC50 was found to be 33.7 µM.

`COc1ccc2c(c1)sc(=N)n2C`: the IC50 is 8.91 µM, the IC90 was found to be 11.7 µM and the CC50 is more than 40 µM.

As for `CCOC(=O)CSc1nnc(-c2ccc(OC)cc2OC)o1`, the IC50 is 1.24 µM and the concentration for an effect of 90% (IC90) came to 2.38 µM.

For `CCC(=O)Nc1nc2ccccc2n1Cc1ccc(C)cc1`, the IC50 is 1.39 µM, the IC90 came out at 11 µM and the half-maximal cytotoxic concentration (CC50) is more than 40 µM.

Take `Cc1ccc(-c2noc(-c3cc4ccccc4oc3=O)n2)cc1`: the IC50 is 1.5 µM and the IC90 is more than 100 µM.
